Reference: patent publication US10766890B2, “Hepatitis B core protein modulators” (Assembly Biosciences, Inc., priority 2015, dated 2020)

Assays:
HBV = assay: Viral load production in AD38 cells, quantitative PCR of the core sequence in supernatant; type: cell-based; details: 10 μM compound, 6 days at 37° C., supernatant qPCR vs DMSO control; for activity at 10 µM: Hepatitis B virus, 144 h, read-out: AD38 Viral Load (%) (VL with cmpd/VL in DMSO control) at 10 μM
Procedure: (§1) Example 63: Assay Measuring Activity of Compounds on Viral Production in and on Viability of AD38 Cells
(§2) AD38 cells were then re-suspended with 10 mL of Treatment Medium and counted. Wells of a collagen coated 96-well NUNC microtiter plate were seeded at 50,000/well in 180 μL of Treatment Medium, and 20 μL of in treatment media with either 10% DMSO (Control) or a 10× solution of compound in 10% DMSO was added. Plates were incubated for 6 days at 37° C.
Viral load production was assayed by quantitative PCR of the core sequence. […] The PCR mixture was incubated at 45° C. for 5 minutes, then 95° C. for 10 min, followed by 40 cycles of 10 seconds at 95° C. and 20 seconds at 60° C. Viral load was quantitated against known standards by using ViiA™ 7 Software. Viral load in the supernatant from wells with treated cells were compared against viral load in supernatant from DMSO control wells (≥3 per plate).

AD38 cells = assay: Viability of AD38 cells, Promega CellTiter-Glo; type: cell-based; details: 10 μM compound, 6 days, CellTiter-Glo luminescence, controls being 100%
Procedure: as §1, §2
At the end of compound treatment period cell viability was assessed using a Promega CellTiter-Glo protocol. All supernatant was removed the previously treated 96-well microtiter plate, and 50 μL Tetracycline-free treatment medium (DMEM/F12 (1:1), 1×Pen/step (cat#: 30-002-CL, Mediatech, Inc), with 2% FBS, Tet-system approved (cat#: 631106, Clontech), and 1% DMSO was added back to each well. Another 50 μL of CellTiter-Glo reagent solution (Promega, G7573) was then added at room temperature and the contents mixed for 2 minutes on an orbital shaker to induce cell lysis. This was followed by incubation at room temperature for 10 minutes to stabilize the luminescent signal. The luminescence was recorded for 0.2 seconds per well on a Tecan multimode platereader (Infinite M1000 pro). The luminescent signal from each well was normalized against that of untreated (DMSO) control wells. All results in Table 3 were reported with percent viability (with controls being 100%).

Row | SMILES | activity at 10 µM (HBV) | AD38 Viability Normalized Result (cmpd/DMSO %) at 10 μM (AD38 cells) | AD38 Viral Load (%) (VL with cmpd/VL in DMSO control) at 10 μM (HBV)
1 | O=C(NCc1cccc(Oc2ccc(O)cc2)c1)c1ccc2c(c1)NC(=O)c1ccccc1S2(=O)=O [Compound 811, N-(3-(4-hydroxyphenoxy)benzyl)-11-oxo-10,11-dihydrodibenzo[b,f][1,4]thiazepine-8-carboxamide 5,5-dioxide] | 1.2% | 95% | –
2 | O=C(NCc1cccc(-c2cccc(O)c2)c1)c1ccc2c(c1)NC(=O)c1ccccc1S2(=O)=O [Compound 774] | 48.5% | 113% | –
3 | NCc1ccc(-c2ccc(CNC(=O)c3ccc4c(c3)NC(=O)c3ccccc3O4)cc2)cc1 [Compound 726] | – | 1% | 6.1%
